Test results reported in the supplement of paper PMC10627819.

How the values were obtained:
S. aureus Newman = assay: Bliss interaction score (quartile over a dose matrix) (fitness difference); higher = more antagonism (negative = synergy)
Summary of the method: (§1)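 The Bliss score takes observed fitness and subtracts the expected fitness, calculated as a product of single-drug fitness values. Those single-drug values were inferred from the combination data. Fitness is OD595 at entry into stationary phase divided by the plate's robust no-drug mean, capped at 1, and the score is summarised by quartiles across technical, biological and donor/recipient replicates.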

S. pneumoniae D39V [1] = assay: as above
Summary of the method: as §1

B. subtilis 168 = assay: as above
Summary of the method: as §1

S. aureus DSM 20231 = assay: as above
Summary of the method: as §1

S. pneumoniae D39V [2] = assay: fitness (endpoint OD595 vs no drug) (fraction); higher = more growth
Summary of the method: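 Growth medium was TSB, LB Lennox or CY, and plates were kept at 37 °C. Inoculation was at OD595 0.01 in 384-well plates, at 30 µl per well or 55 µl for S. pneumoniae. OD595 was monitored every 30 min for 14 h and background-subtracted using the first reading. Fitness is the optical density on entering stationary phase divided by the robust mean of no-drug controls, with values capped at 1.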
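For Bliss interaction score (quartile over a dose matrix) in this document: first quartile when negative (synergy) and third quartile when positive (antagonism).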
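For fitness (endpoint OD595 vs no drug) in this document: OD595 on entry to stationary phase over no-drug wells; at most 1.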

C[C@@H](O)[C@H]1C(=O)N2C(C(=O)O)=C(SCCNC=N)C[C@H]12 [Imipenem] + COc1c(N2C[C@@H]3CCCN[C@@H]3C2)c(F)cc2c(=O)c(C(=O)O)cn(C3CC3)c12 [Moxifloxacin]
Conditions | Bliss interaction score
B. subtilis 168 | 0.0307
S. aureus DSM 20231 | -0.0816
S. aureus Newman | 0.0177
S. pneumoniae D39V [1] | 0.0521

fitness, S. pneumoniae D39V [2]
Conditions | first compound 0.005 µg/mL | first compound 0.0065 µg/mL | first compound 0.01 µg/mL | first compound 0.013 µg/mL | first compound 0.02 µg/mL | first compound 0.026 µg/mL
partner 0.0037 µg/mL | – | 0.821 | – | 0.805 | – | 0.751
partner 0.005 µg/mL | 0.968 | – | 0.949 | – | 0.963 | –
partner 0.0075 µg/mL | – | 0.853 | – | 0.863 | – | 0.649
partner 0.01 µg/mL | 0.99 | – | 0.981 | – | 0.976 | –
partner 0.015 µg/mL | – | 0.856 | – | 0.67 | – | 0.65
partner 0.02 µg/mL | 0.933 | – | 0.904 | – | 0.941 | –

C[C@@H](O)[C@H]1C(=O)N2C(C(=O)O)=C(SCCNC=N)C[C@H]12 [Imipenem] + COc1ccc(C[C@H](N)C(=O)N[C@H]2[C@@H](O)[C@H](n3cnc4c(N(C)C)ncnc43)O[C@@H]2CO)cc1 [Puromycin]
Conditions | Bliss interaction score
B. subtilis 168 | 0.0681
S. aureus DSM 20231 | 0.0683
S. aureus Newman | -0.0481
S. pneumoniae D39V [1] | 0.0871

fitness, S. pneumoniae D39V [2], one replicate
Conditions | first compound 0.005 µg/mL | first compound 0.01 µg/mL | first compound 0.02 µg/mL
partner 1 µg/mL | 0.896 | 0.955 | 0.973
partner 2 µg/mL | 0.931 | 0.954 | 0.941
partner 4 µg/mL | 0.729 | 0.791 | 0.759

fitness, S. pneumoniae D39V [2]
Conditions | first compound 0.0065 µg/mL | first compound 0.013 µg/mL | first compound 0.026 µg/mL
partner 1 µg/mL | 0.992 | 0.989 | 0.964
partner 2 µg/mL | 0.96 | 0.886 | 0.906
partner 4 µg/mL | 0.748 | 0.783 | 0.739

C[C@@H](O)[C@H]1C(=O)N2C(C(=O)O)=C(SCCNC=N)C[C@H]12 [Imipenem] + C[C@H]1COc2c(N3CCN(C)CC3)c(F)cc3c(=O)c(C(=O)O)cn1c23 [Levofloxacin]
Conditions | Bliss interaction score
B. subtilis 168 | -0.17
S. aureus DSM 20231 | 0.025
S. aureus Newman | 0.0287
S. pneumoniae D39V [1] | -0.0377

fitness, S. pneumoniae D39V [2]
Conditions | first compound 0.005 µg/mL | first compound 0.0065 µg/mL | first compound 0.01 µg/mL | first compound 0.013 µg/mL | first compound 0.02 µg/mL | first compound 0.026 µg/mL
partner 0.1725 µg/mL | 0.958 | – | 0.948 | – | 0.963 | –
partner 0.2 µg/mL | – | 0.886 | – | 0.885 | – | 0.871
partner 0.345 µg/mL | 0.894 | – | 0.877 | – | 0.826 | –
partner 0.4 µg/mL | – | 0.77 | – | 0.778 | – | 0.713
partner 0.69 µg/mL | 0.571 | – | 0.615 | – | 0.576 | –
partner 0.8 µg/mL | – | 0.227 | – | 0.361 | – | 0.329

C[C@@H](O)[C@H]1C(=O)N2C(C(=O)O)=C(SCCNC=N)C[C@H]12 [Imipenem] + C[n+]1ccc(-c2cc[n+](C)cc2)cc1 [Paraquat]
Conditions | Bliss interaction score
B. subtilis 168 | -0.0424
S. aureus DSM 20231 | 0.0307
S. aureus Newman | 0.0426
S. pneumoniae D39V [1] | 0.0638

fitness, S. pneumoniae D39V [2], one replicate
Conditions | first compound 0.005 µg/mL | first compound 0.01 µg/mL | first compound 0.02 µg/mL
partner 1.5 µg/mL | 0.991 | 0.997 | ≥ 1
partner 3 µg/mL | 0.994 | 0.996 | ≥ 1
partner 6 µg/mL | ≥ 1 | ≥ 1 | 0.998

fitness, S. pneumoniae D39V [2]
Conditions | first compound 0.0065 µg/mL | first compound 0.013 µg/mL | first compound 0.026 µg/mL
partner 1.5 µg/mL | 0.97 | 0.983 | –
partner 3 µg/mL | 0.968 | 0.969 | 0.939
partner 6 µg/mL | 0.926 | 0.799 | 0.847

C[C@@H](O)[C@H]1C(=O)N2C(C(=O)O)=C(SCCNC=N)C[C@H]12 [Imipenem] + Cc1cc(NS(=O)(=O)c2ccc(N)cc2)no1 [Sulfamethoxazol]
Conditions | Bliss interaction score
B. subtilis 168 | 0.0891
S. aureus DSM 20231 | -0.0317
S. aureus Newman | -0.0488
S. pneumoniae D39V [1] | 0.066

fitness, S. pneumoniae D39V [2], one replicate
Conditions | first compound 0.005 µg/mL | first compound 0.01 µg/mL | first compound 0.02 µg/mL
partner 1 µg/mL | 0.993 | 0.998 | 0.959
partner 2 µg/mL | 0.957 | 0.924 | 0.982
partner 4 µg/mL | 0.879 | 0.856 | 0.859

fitness, S. pneumoniae D39V [2]
Conditions | first compound 0.0065 µg/mL | first compound 0.013 µg/mL | first compound 0.026 µg/mL
partner 1 µg/mL | 0.96 | 0.923 | 0.82
partner 2 µg/mL | 0.976 | 0.932 | 0.925
partner 4 µg/mL | 0.976 | 0.941 | 0.917

C[C@@H](O)[C@H]1C(=O)N2C(C(=O)O)=C(SCCNC=N)C[C@H]12 [Imipenem] + Cc1ncc([N+](=O)[O-])n1CCO [Metronidazole]
Conditions | Bliss interaction score
B. subtilis 168 | 0.0502
S. aureus DSM 20231 | 0.0365
S. aureus Newman | -0.0547
S. pneumoniae D39V [1] | 0.0768

fitness, S. pneumoniae D39V [2]
Conditions | first compound 0.005 µg/mL | first compound 0.0065 µg/mL | first compound 0.01 µg/mL | first compound 0.013 µg/mL | first compound 0.02 µg/mL | first compound 0.026 µg/mL
partner 1.073 µg/mL | 0.961 | – | 0.945 | – | 0.919 | –
partner 1.25 µg/mL | – | 0.991 | – | 0.995 | – | 0.985
partner 2.145 µg/mL | 0.872 | – | 0.737 | – | 0.886 | –
partner 2.5 µg/mL | – | 0.988 | – | ≥ 1 | – | 0.984
partner 4.29 µg/mL | 0.908 | – | 0.903 | – | 0.903 | –
partner 5 µg/mL | – | 0.99 | – | 0.969 | – | 0.961

C[C@@H](O)[C@H]1C(=O)N2C(C(=O)O)=C(SCCNC=N)C[C@H]12 [Imipenem] + Cc1onc(-c2ccccc2)c1C(=O)N[C@@H]1C(=O)N2[C@@H]1SC(C)(C)[C@@H]2C(=O)O [Oxacillin]
Conditions | Bliss interaction score
B. subtilis 168 | -0.048
S. aureus DSM 20231 | -0.0527
S. aureus Newman | 0.0474
S. pneumoniae D39V [1] | 0.0736

fitness, S. pneumoniae D39V [2]
Conditions | first compound 0.005 µg/mL | first compound 0.0065 µg/mL | first compound 0.01 µg/mL | first compound 0.013 µg/mL | first compound 0.02 µg/mL | first compound 0.026 µg/mL
partner 0.01 µg/mL | 0.963 | 0.968 | 0.983 | 0.996 | 0.95 | 0.956
partner 0.02 µg/mL | 0.92 | 0.845 | 0.933 | 0.902 | 0.905 | 0.812
partner 0.04 µg/mL | 0.524 | 0.0658 | 0.511 | 0.171 | 0.468 | 0.109

C[C@@H](O)[C@H]1C(=O)N2C(C(=O)O)=C(SCCNC=N)C[C@H]12 [Imipenem] + Clc1ccc(COC(Cn2ccnc2)c2ccc(Cl)cc2Cl)c(Cl)c1 [Miconazole]
Conditions | Bliss interaction score
B. subtilis 168 | -0.0815
S. aureus DSM 20231 | 0.0412
S. aureus Newman | -0.0307
S. pneumoniae D39V [1] | 0.0759

fitness, S. pneumoniae D39V [2]
Conditions | first compound 0.005 µg/mL | first compound 0.0065 µg/mL | first compound 0.01 µg/mL | first compound 0.013 µg/mL | first compound 0.02 µg/mL | first compound 0.026 µg/mL
partner 1.073 µg/mL | ≥ 1 | – | ≥ 1 | – | ≥ 1 | –
partner 1.25 µg/mL | – | 0.877 | – | 0.869 | – | 0.72
partner 2.145 µg/mL | ≥ 1 | – | 0.998 | – | 0.99 | –
partner 2.5 µg/mL | – | 0.892 | – | 0.907 | – | 0.761
partner 4.29 µg/mL | 0.955 | – | 0.95 | – | 0.882 | –
partner 5 µg/mL | – | 0.908 | – | 0.947 | – | 0.886

C[C@@H](O)[C@H]1C(=O)N2C(C(=O)O)=C(SCCNC=N)C[C@H]12 [Imipenem] + Cn1nnc(-c2ccc(-c3ccc(N4C[C@H](CO)OC4=O)cc3F)cn2)n1 [Tedizolid]
Conditions | Bliss interaction score
B. subtilis 168 | 0.21
S. aureus DSM 20231 | -0.0424
S. aureus Newman | 0.0821
S. pneumoniae D39V [1] | -0.17

fitness, S. pneumoniae D39V [2]
Conditions | first compound 0.005 µg/mL | first compound 0.0065 µg/mL | first compound 0.01 µg/mL | first compound 0.013 µg/mL | first compound 0.02 µg/mL | first compound 0.026 µg/mL
partner 0.03125 µg/mL | 0.922 | – | 0.917 | – | 0.913 | –
partner 0.0625 µg/mL | 0.958 | – | 0.949 | – | 0.993 | –
partner 0.125 µg/mL | 0.829 | 0.68 | 0.795 | 0.758 | 0.82 | 0.553
partner 0.25 µg/mL | – | 0.553 | – | 0.607 | – | 0.578
partner 0.5 µg/mL | – | 0.125 | – | 0.161 | – | 0.151

C[C@@H](O)[C@H]1C(=O)N2C(C(=O)O)=C(SCCNC=N)C[C@H]12 [Imipenem] + O=C1CN(/N=C/c2ccc([N+](=O)[O-])o2)C(=O)N1 [Nitrofurantoin]
Conditions | Bliss interaction score
B. subtilis 168 | 0.0986
S. aureus DSM 20231 | 0.0253
S. aureus Newman | -0.0377
S. pneumoniae D39V [1] | 0.049

fitness, S. pneumoniae D39V [2]
Conditions | first compound 0.005 µg/mL | first compound 0.0065 µg/mL | first compound 0.01 µg/mL | first compound 0.013 µg/mL | first compound 0.02 µg/mL | first compound 0.026 µg/mL
partner 1.285 µg/mL | 0.947 | – | 0.967 | – | 0.97 | –
partner 2 µg/mL | – | 0.931 | – | 0.882 | – | 0.842
partner 2.57 µg/mL | 0.946 | – | 0.944 | – | 0.955 | –
partner 4 µg/mL | – | 0.912 | – | 0.914 | – | 0.804
partner 8 µg/mL | – | 0.763 | – | 0.728 | – | 0.72

S. pneumoniae D39V [2], partner 5.14 µg/mL, one replicate
Conditions | fitness
first compound 0.005 µg/mL | 0.887
first compound 0.01 µg/mL | 0.941
first compound 0.02 µg/mL | 0.928
